Like-named read-outs stand apart in the source and are kept apart here.

One assay relates to prostate cancer cells. Put plainly: Sensitivity of prostate cancer cells to CCI-779. Format: cell-based. Conditions: some prostate cancer cells, data not shown.
The test system of the next assay is LNCaP cells. The note with it: MTT assay, FIG. 1A. As to the method: (§1) Human prostatic cancer cell lines LNCaP, DU-145, PC-3, and Tsu-prl were obtained from ATCC. LNCaP cancer cells were maintained in humidified atmosphere of 5% CO2 in air in RPMI 1640 medium supplemented with 10% fetal calf serum (Life Technologies, Inc, Rockville, Md.), 3 mM L-glutamine, 100 μg/ml streptomycin and 100 units/ml penicillin. Other lines were maintained in DMEM containing 3 mM L-glutamine, 100 μg/ml streptomycin, 100 units/ml penicillin, and 10% FCS in humidified atmosphere of 5% CO2. To examine the effects of steroids, cells were cultured in RPMI 1640 medium containing 5% FCS treated with dextran coated charcoal (Hyclone, Logan, Utah) for 24 hs before treatment. Cells were grown in the absence or presence of 10 nM DHT for 0, 2, 4, 6, 12, 24, 48, and 72 hs. They were collected and frozen at each time point. Two hundred μl of medium were collected from each flask for PSA assay.
To verify the effect of DHT on the growth of LNCaP cells, cells at 3,000 cells/well were plated in 96-well plates for 24 hs before treatment with DHT. After 72 hs, MTT was added to each well and incubated at 37° C. for four hs. At the end of incubation, the supernatant was removed and 100 μl DMSO was added to each well to dissolve […]. Plates were subsequently read in a plate reader at […].
Background: Tetrazolium assays rely on reduction of a dye to a coloured formazan, in cell work by metabolically active cells.

For assay [1], the system named is FKBP54. Conditions: LNCaP cells, 10 nM DHT, mRNA frequency. The protocol:
as §1

Assay [2] has as its system FKBP54. The assay is described as follows: Western blot analysis of FKBP54 protein in LNCaP cells. Type of assay: cell-based, human. The protocol: For Western blot analysis, LNCaP cells were plated in 6-well plate at 1×10^6 cells/well in charcoal stripped serum containing medium. Cells were treated with 10 nM DHT and harvested at designated time. Cells were harvested in MPER reagent (Pierce, Rockford, Ill.) containing 400 mM NaCl. […] The PVDF membrane was incubated in TBST (TBS with 0.1% Tween-20) with 3% milk for 15 minutes before the addition of the first antibody, rabbit anti-FKBP54 (Affinity Bioreagents, Inc). After overnight incubation, the PVDF membrane was washed 3 times with TBST and incubated with a second antibody, anti-rabbit-IgG coupled with horseradish peroxidase (Transduction Labs) for one hour. The PVDF membrane was then washed 3 times with TBST and protein was detected by using an enhanced chemiluminescence detection system (Pierce).
(In western blotting, separated proteins are transferred to a membrane and probed.)

The test system of assay [3] is PSA.
Assay [4] has as its system PSA. The note with it: LNCaP cells, 10 nM DHT, mRNA frequency.
The subject of a further assay is androgen receptor (AR). The assay is described as follows: Transient transfection of COS-1 cells, GREe1bLuc luciferase reporter of AR transcriptional activity. Format: cell-based. The note with it: COS-1 cells transfected with FKBP54 expression vector. As to the method: Bars represent the mean of at least three independent experiments±SD. To determine the effect of FKBP54 on the transcriptional activity of androgen receptor (AR), COS-1 cells were transiently transfected with a reporter construct containing androgen receptor response element along with an expression vector encoding FKBP54. […] The next morning, medium were replaced with 2-ml DMEM. Indicated amount of DNA in 100 μl of DMEM was mixed with 6 μl of PLUS reagent (Gibco) and incubated at room temperature while 4 μl of lipofectamine was mixed with 100 μl of DMEM. […] After incubation with DNA for 4 hours, 2 ml of phenol red-free DMEM containing 10% charcoal-stripped fetal bovine serum was added and cells treated with indicated chemicals for additional 24 hours before being harvested. Luciferase activity was determined using Promega's STEADY GLO™ Luciferase Assay System.
For orientation: In a reporter assay the amount or activity of a reporter protein is the signal.

Turning to `CO[C@H]1C[C@@H]2CC[C@@H](C)[C@@](O)(O2)C(=O)C(=O)N2CCCC[C@H]2C(=O)O[C@H]([C@H](C)C[C@@H]2CC[C@@H](OC(=O)C(C)(CO)CO)[C@H](OC)C2)CC(=O)[C@H](C)/C=C(\C)[C@@H](O)[C@@H](OC)C(=O)[C@H](C)C[C@H](C)/C=C/C=C/C=C/1C` [CCI-779], the “sensitivity of prostate cancer cells” value in the assay with prostate cancer cells was “sensitive”.
`C[C@]12CCC(=O)C[C@@H]1CC[C@@H]1[C@@H]2CC[C@]2(C)[C@@H](O)CC[C@@H]12` [DHT, dihydrotestosterone]: the “growth of LNCaP cells” value in the assay on LNCaP cells is recorded as “stimulated by a natural androgen DHT in a dose-dependent manner”. Further, the “FKBP54 expression induction relative to baseline” value in the assay with FKBP54 [1] (6 hours) is on record as 2 fold. The “FKBP54 expression induction relative to baseline (peak)” value with FKBP54 [1] (24 hours) was “approximately 4 fold”. Besides, the “FKBP54 protein expression (Western blot, blot not shown)” value in the assay on FKBP54 [2] was “upregulated the FKB54 expression in a time-dependent manner”. Moreover, the “increase in level of FKBP54 expression” value was “approximately two-fold” with FKBP54 [2] (24 hours post exposure) and “approximately 4 fold” in the assay with FKBP54 [2] (72 hours post exposure). Further, the “Quantitative Expression Levels of FKBP54 (band density values)” value (shortened to “Quantitative Expression Levels of FKBP54”) in the assay on FKBP54 [2] (time 0 hr) was determined as 8.5; in the assay with FKBP54 [2] (time 2 hr), 9.0; in the assay with FKBP54 [2] (time 6 hr), 9.8; with FKBP54 [2] (time 12 hr), 8.0; with FKBP54 [2] (time 24 hr) it was 12.0; with FKBP54 [2] (time 48 hr) it was 23.0. Also, in the assay with FKBP54 [2] (time 72 hr), the “Quantitative Expression Levels of FKBP54” value amounted to 30.2. For the same molecule, in the assay on PSA [3], the PSA production entry was “increased in a dose-dependent manner”. Besides, the “time at which PSA signal was first detected” value in the assay on PSA [3] is 12 h. The “time of maximal PSA level” value in the assay on PSA [3] is given as “about 48 hs”. The “PSA expression increase relative to control” value was 3 fold in the assay on PSA [4] (12 hours) and “approximately 4 fold” in the assay on PSA [4] (72 hours).
On to `C[C@]1(O)CC[C@H]2[C@@H]3CCC4=CC(=O)CCC4=C3C=C[C@@]21C` [R1881], for which, in the assay with FKBP54 [2], the “FKBP54 protein expression (Western blot, blot not shown)” value is given as “could also upregulate the FKBP54 expression”. Besides, the “increase in level of FKBP54 expression” value in the assay on FKBP54 [2] (24 hours post exposure) is listed as roughly 10 fold; in the assay with FKBP54 [2] (72 hours post exposure) it was “approximately 30 fold”. The “Quantitative Expression Levels of FKBP54” value with FKBP54 [2] (time 0 hr) came to 1.8; in the assay with FKBP54 [2] (time 2 hr), 5.3; in the assay on FKBP54 [2] (time 6 hr), 5.9; with FKBP54 [2] (time 12 hr), 5.0; in the assay on FKBP54 [2] (time 24 hr), 20.1; with FKBP54 [2] (time 48 hr) it was 27.2. In addition, the “Quantitative Expression Levels of FKBP54” value in the assay on FKBP54 [2] (time 72 hr) is listed as 34.4.

B1: FKBP54: member of the immunophilin family, FK binding protein; transfected as expression vector encoding FKBP54 (protein, UniProt Q13451 1-457, looked up)
Peptidyl-prolyl cis-trans …: MTTDEGAKNNEESPTATVAEQGEDITSKKDRGVLKIVKRVGNGEETPMIGDKVYVHYKGKLSNGKKFDSSHDRNEPFVFSLGKGQVIKAWDIGVATMKKGEICHLLCKPEYAYGSAGSLPKIPSNATLFFEIELLDFKGEDLFEDGGIIRRTKRKGEGYSNPNEGATVEIHLEGRCGGRMFDCRDVAFTVGEGEDHDIPIGIDKALEKMQREEQCILYLGPRYGFGEAGKPKFGIEPNAELIYEVTLKSFEKAKESWEMDTKEKLEQAAIVKEKGTVYFKGGKYMQAVIQYGKIVSWLEMEYGLSEKESKASESFLLAAFLNLAMCYLKLREYTKAVECCDKALGLDSANEKGLYRRGEAQLLMNEFESAKGDFEKVLEVNPQNKAARLQISMCQKKAKEHNERDRRIYANMFKKFAEQDAKEEANKAMGKKTSEGVTNEKGTDSQAMEEEKPEGHV
For the molecule B1, the “increase of AR activity” value in the assay with androgen receptor (AR) (in the presence of androgen (10^-9 M R1881)) is “more than 30%”. The “effect on the reporter activity” value in the assay with androgen receptor (AR) (without androgen) was “no effect”.

These data come from US7402388B2, “Expression analysis of FKBP54 in assessing prostate cancer therapy” (Wyeth, priority 2000, dated 2008).
